Values quoted from earlier work as cited in US12226503B2, “Prebiotic skin care compositions containing carboxylic acids” (priority 2019, dated 2025).

Conditions: toxic or irritant for humans or on skin

Molecule | Toxicity
O=C(O)[C@@H](O)[C@H](O)[C@H](O)[C@@H](O)C(=O)O [Mucic acid] | +
CCCCCCC(N)C(=O)O (racemic) [D,L-α-amino-caprylic acid] | +
O=C(O)c1ccc(O)cc1 [4-hydroxybenzoic acid] | +
O=C(O)c1cc(O)c(O)c(O)c1 [Gallic acid] | +
O=C(O)[C@@H](O)[C@@H](O)[C@H](O)[C@@H](O)C(=O)O [D-saccharic acid] | +
C[C@H](O)C(=O)O [L-lactic acid] | +
CCC(N)C(=O)O (racemic) [D,L-α-amino-N-butyric acid] | +
O=C(O)/C=C/C(=O)O [Fumaric acid] | +
NCCCCCC(=O)O [ε-Amino-N-caproic acid] | +
O=C(O)CNC(=O)c1ccccc1 [Hippuric acid] | +
CC(O)CC(=O)O (stereo not drawn) [β-hydroxybutyric acid] | +
NCCCC(=O)O [γ-Aminobutyric acid] | +
COc1cc(/C=C/C(=O)O)ccc1O [Ferulic acid] | +
Citric acid | +
O=C(O)C(CO)c1ccccc1 (stereo not shown) [Tropic acid] | +
CCCCCCCCCCCCCCCCCC(=O)O [Stearic acid] | +
O=CC(=O)O [Glyoxylic acid] | +
O=C(O)CC(O)C(=O)O (racemic) [D,L-Malic acid] | +
CC(=O)N[C@H]1[C@H]([C@H](O)[C@H](O)CO)O[C@](O)(C(=O)O)C[C@@H]1O [N-acetyl-neuraminic acid] | +
